Results from patent US20110172217A1, “RING-FUSED MORPHOLINE DERIVATIVE HAVING PI3K-INHIBITING ACTIVITY” (Shionogi & Co., Ltd., priority 2008, published 2011).

Experiments:
PI-3 kinase γ [1] = target: T1, PI-3 kinase γ (Homo sapiens, UniProt P48736); assay: PI3Kγ inhibitory activity (Ki value); assay type: biochemical; conditions: test ATP concentration 10 μmol/L
Method: The PI3Kγ inhibitory activity (Ki value) of a compound was evaluated according to the following procedure:
5 μL of a compound solution containing 10% DMSO and 200 μmol/L of a compound was changed to 5 μL of a compound solution containing 10% DMSO and either 200, 64, 20, 6.4, 2, 0.64, or 0.20 μmol/L of the compound (optionally, this is diluted to a lower concentration). Using a method similar to the method for measuring PI3Kγ inhibitory activity, inhibition ratios were measured in the presence of the compound at 50, 16, 5, 1.6, 0.5, 0.16, and 0.05 μmol/L (optionally, a lower concentration). Then an IC50 value was calculated by a logistic approximation method or the linear regression method using two concentrations that across 50% inhibition. Separately, the ATP concentration in the reaction solution (40 μmol/L ATP, 10 mmol/L MgCl2, 5 mmol/L DTT) at the time of the start of a reaction in the absence of the compound was changed to 80, 40, 20, 10, 5, 2.5, 1.25, or 0.625 μmol/L. Then, HTRF ratios were measured by a similar method. The value obtained by subtracting the HTRF ratio at each ATP concentration from the HTRF ratio in the absence of PI-3 kinase γ was defined as the value obtained by multiplying reaction rate (v) at each ATP concentration with a constant. The Michaelis-Menten constant Km was then calculated by the Lineweaver-Burk plot method. The Ki value of a compound was calculated by the following formula.
Ki=IC50 value/(1+10 μmol/L (test ATP concentration)/Km(μmol/L))

[2] = Metabolic stability test, pooled human liver microsome; assay type: in vitro ADME; conditions: 2 μmol/L compound; human liver microsome 0.5 mg protein/mL, NADPH, 37° C.
Method: After a subject compound was reacted for a certain time using a commercially available pooled human liver microsome, a reacted sample and an unreacted sample are compared to calculate a survival ratio, and then the degree of metabolism in the liver was evaluated.
0.2 mL of a buffer solution (50 mmol/L of Tris-HCl in pH 7.4, 150 mmol/L of potassium chloride, and 10 mmol/L of magnesium chloride) containing a human liver microsome of 0.5 mg protein/mL was reacted in the presence of 1 mmol/L NADPH at 37° C. for 0 or 30 minutes (oxidative reaction). After reacting, 50 μL of the reaction solution was added to 100 μL of a solution of methanol/acetonitrile (1/1 (v/v)), mixed, and then centrifuged at 3000 rpm for 15 minutes. The test compound in the supernatant was quantitated with LC/MS/MS. The amount of the compound at a reaction time of 0 minute was defined as 100% and, based on that, the percentage of the test compound remained after reacting for 30 minutes was calculated.

PI-3 kinase γ [3] = target: T1, PI-3 kinase γ; assay: PI3Kγ inhibitory activity, PI3-kinase HTRF assay (inhibition ratio); assay type: biochemical; conditions: 0.5 h, compound at 50 μmol/L
Method in brief: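 Human PI3Kγ was preincubated 10 min with compound and PIP2 substrate, then reacted 30 min at room temperature with ATP (40 μmol/L in the added solution); EDTA/biotin-PIP3 quenched. HTRF 665/620 nm ratio read after 18 h, normalized to no-compound (100%) and no-enzyme (0%) controls, gave % inhibition at 50 or 10 μmol/L compound.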

CYP2D6 = target: T2, CYP2D6 (Homo sapiens, UniProt P10635); assay: CYP inhibition test, O-demethylation of dextromethorphan; assay type: in vitro ADME; conditions: pooled human liver microsome; one of 5 kinds
T2 construct: enzyme: pooled human liver microsome 0.2 mg protein/mL; from tissue; host or cells: pooled human liver microsomes
T2 sequence (P10635 whole entry): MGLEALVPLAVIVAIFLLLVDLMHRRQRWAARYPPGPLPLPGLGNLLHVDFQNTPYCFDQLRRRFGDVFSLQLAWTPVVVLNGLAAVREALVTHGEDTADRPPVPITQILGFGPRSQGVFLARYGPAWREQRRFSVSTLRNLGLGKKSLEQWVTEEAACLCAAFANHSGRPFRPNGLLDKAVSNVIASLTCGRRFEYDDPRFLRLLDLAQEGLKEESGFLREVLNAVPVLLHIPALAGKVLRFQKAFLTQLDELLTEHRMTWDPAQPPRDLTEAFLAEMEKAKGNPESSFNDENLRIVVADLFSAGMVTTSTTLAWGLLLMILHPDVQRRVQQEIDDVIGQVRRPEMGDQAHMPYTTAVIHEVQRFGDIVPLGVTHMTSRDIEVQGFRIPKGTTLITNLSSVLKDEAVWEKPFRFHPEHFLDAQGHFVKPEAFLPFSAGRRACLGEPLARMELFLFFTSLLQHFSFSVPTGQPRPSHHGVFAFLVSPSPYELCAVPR
From the text: (§1) O-de-ethylation of 7-ethoxyresorufin (CYP1A2), methyl-hydroxylation of tolbutamide (CYP2C9), 4′-hydroxylation of mephenyloin (CYP2C19), O-demethylation of dextromethorphan (CYP2D6), and hydroxylation of terfenadine (CYP3A4), which are typical substrate for metabolic reactions of human main CYP5 molecular species (CYP1A2, 2C9, 2C19, 2D6, and 3A4), were adopted as indexes.
(§2) The reaction conditions are as follows: substrate: 0.5 μmol/L of ethoxyresorufin (CYP1A2), 100 μmol/L of tolbutamide (CYP2C9), 50 μmol/L of S-mephenyloin (CYP2C19), […] of dextromethorphan (CYP2D6), and 1 μmol/L of terfenadine (CYP3A4); reaction time; 15 minutes; reaction temperature: 37° C.; enzyme: pooled human liver microsome 0.2 mg protein/mL; test drug concentration: 1, 5, 10, and 20 μmol/L (4 points).
(§3) In a 96-well plate, as a reaction solution, five kinds of substrates, a human liver microsome, and a test drug were added to 50 mmol/L Hepes buffer solution in the aforementioned ratio. A coenzyme NADPH was added to start a metabolic reaction, which is an index. After reacting at 37° C. for 15 minutes, a solution of methanol/acetonitrile (1/1 (v/v)) was added to quench the reaction. After centrifugation at 3000 rpm for 15 minutes, resorufin (CYP1A2 metabolite) in the supernatant was quantitated with a fluorescence multilabel counter, and hydroxylated tolbutamide (CYP2C9 metabolite), 4′-hydroxylated mephenyloin (CYP2C19 metabolite), […], terfenadine in alcohol form (CYP3A4 metabolite) were quantitated with LC/MS/MS.
(§4) The case wherein only DMSO (a solvent which dissolved a drug) was added to a reaction system was defined as a control (100%). When a test drug solution was added, the remaining activity (%) at each concentration was calculated, and then IC50 was calculated with a concentration and an inhibition ratio by an inverse estimation using a logistic model.

CYP2C9 = target: T3, CYP2C9 (Homo sapiens, UniProt P11712); assay: CYP inhibition test, methyl-hydroxylation of tolbutamide; assay type: in vitro ADME; conditions: pooled human liver microsome; one of 5 kinds
T3 construct: enzyme: pooled human liver microsome 0.2 mg protein/mL; from tissue; host or cells: pooled human liver microsomes
T3 sequence (P11712 whole entry): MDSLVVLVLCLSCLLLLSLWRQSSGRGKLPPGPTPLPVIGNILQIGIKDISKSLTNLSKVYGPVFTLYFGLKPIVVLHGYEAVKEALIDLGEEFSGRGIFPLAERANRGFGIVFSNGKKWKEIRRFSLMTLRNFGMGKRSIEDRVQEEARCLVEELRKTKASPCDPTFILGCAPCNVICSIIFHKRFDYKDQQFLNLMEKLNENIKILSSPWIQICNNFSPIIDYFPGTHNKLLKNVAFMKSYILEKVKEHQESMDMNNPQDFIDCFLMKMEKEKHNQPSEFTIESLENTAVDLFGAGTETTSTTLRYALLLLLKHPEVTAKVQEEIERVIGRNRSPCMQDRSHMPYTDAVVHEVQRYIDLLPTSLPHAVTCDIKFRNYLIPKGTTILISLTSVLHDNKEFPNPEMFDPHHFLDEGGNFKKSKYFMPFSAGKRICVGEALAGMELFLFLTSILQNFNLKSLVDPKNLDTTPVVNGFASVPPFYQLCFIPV
From the text: as §1, §2, §3, §4

T1 sequence (P48736 whole entry): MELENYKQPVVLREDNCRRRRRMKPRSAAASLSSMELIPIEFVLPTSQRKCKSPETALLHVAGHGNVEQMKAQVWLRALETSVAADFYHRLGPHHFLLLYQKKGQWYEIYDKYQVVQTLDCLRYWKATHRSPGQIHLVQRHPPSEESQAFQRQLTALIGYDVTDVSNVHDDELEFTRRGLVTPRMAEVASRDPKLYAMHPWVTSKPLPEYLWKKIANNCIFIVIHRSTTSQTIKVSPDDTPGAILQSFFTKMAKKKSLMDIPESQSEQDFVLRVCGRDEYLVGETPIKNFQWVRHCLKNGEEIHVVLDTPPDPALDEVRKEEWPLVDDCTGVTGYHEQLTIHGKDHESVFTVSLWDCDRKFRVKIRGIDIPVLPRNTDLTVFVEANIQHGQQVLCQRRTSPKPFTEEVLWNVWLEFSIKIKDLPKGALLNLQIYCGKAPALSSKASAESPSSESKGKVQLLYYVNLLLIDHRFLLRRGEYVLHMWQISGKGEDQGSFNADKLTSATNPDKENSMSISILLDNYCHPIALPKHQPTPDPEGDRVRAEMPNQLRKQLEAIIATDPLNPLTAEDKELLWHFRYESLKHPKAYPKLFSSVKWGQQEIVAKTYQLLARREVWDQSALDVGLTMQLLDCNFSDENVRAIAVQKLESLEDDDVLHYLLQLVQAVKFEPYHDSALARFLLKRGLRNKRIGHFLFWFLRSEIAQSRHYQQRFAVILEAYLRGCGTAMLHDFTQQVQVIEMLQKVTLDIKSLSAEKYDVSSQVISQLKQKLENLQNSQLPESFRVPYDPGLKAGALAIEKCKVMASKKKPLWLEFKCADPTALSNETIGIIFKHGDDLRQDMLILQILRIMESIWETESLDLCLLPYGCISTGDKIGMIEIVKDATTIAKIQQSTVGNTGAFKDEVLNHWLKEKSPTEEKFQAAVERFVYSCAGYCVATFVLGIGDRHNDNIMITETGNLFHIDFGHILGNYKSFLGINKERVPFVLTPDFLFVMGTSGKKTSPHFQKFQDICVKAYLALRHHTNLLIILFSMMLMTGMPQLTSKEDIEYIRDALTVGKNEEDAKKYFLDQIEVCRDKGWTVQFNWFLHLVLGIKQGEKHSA

| SMILES | Ki (PI-3 kinase γ [1]) [nM] | percentage of test compound remained after reacting for 30 minutes [2] [%] | inhibition at 50 µM (PI-3 kinase γ [3]) [%] | IC50 (CYP2D6) [nM] | IC50 (CYP2C9) [nM] |
| --- | --- | --- | --- | --- | --- |
| O=C(O)c1ccccc1Nc1ccc2c(n1)N(C(=O)Nc1ccccc1)CCO2 [Compound I-145] | 44 | 88.4 | 81 |  |  |
| O=C(O)COc1cccc(Nc2ccc3c(n2)N(C(=O)Nc2ccccc2)CCO3)c1 [Compound I-240] | 48 | 89.9 | ≥ 95 | > 20000 | > 20000 |
